Experimental findings from PubChem BioAssay (NCI) are described below.

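96-well plates; 48 h exposure; 5 concentrations. Endpoints by linear interpolation between flanking doses. Not reached: highest tested concentration assigned. TGI: total growth inhibition.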

Among the test systems are CCRF-CEM leukemia; SF-539 CNS; HS 578T breast; SF-268 CNS; UACC-257 melanoma; TK-10 renal; HCT-15 colon; U251 CNS; UACC-62 melanoma; SF-295 CNS; HCC-2998 colon; MCF7 breast; SK-MEL-2 melanoma; ACHN renal; OVCAR-3 ovarian; NCI/ADR-RES ovarian; MDA-N; SK-MEL-28 melanoma.
Assay in all cases: NCI-60 cell line screen, 48 h

Take `CC1OC(OC2C(OC(=O)[C@@H]3CC(C)(C)C[C@@H]4C5=CC[C@@H]6[C@@]7(C)C[C@H](O)[C@H](OC8OC(CO)C(O)C(O)C8O)[C@@](C)(CO)C7[C@H](O)C[C@@]6(C)[C@]5(C)C[C@@H](O)[C@H]43)OCC(O)C2O)C(O)C(O)C1O` (some centres undefined): the TGI with CCRF-CEM leukemia, in the test with SF-539 CNS, in the test with HS 578T breast, in the test on SF-268 CNS, with UACC-257 melanoma and in the test on TK-10 renal was > 15 µM in each case. The TGI in the test with HCT-15 colon, in the test on U251 CNS, in the test on UACC-62 melanoma, in the test with SF-295 CNS, in the test with HCC-2998 colon and in the test with MCF7 breast was > 15 µM in each case. Also, the TGI in the test with SK-MEL-2 melanoma, with ACHN renal, with OVCAR-3 ovarian and in the test on NCI/ADR-RES ovarian was > 15 µM throughout.

For the molecule `CN1CCCOC(c2ccc([N+](=O)[O-])cc2)O1` (centres undefined), the TGI with CCRF-CEM leukemia, with SF-539 CNS, with MDA-N, in the test with SF-268 CNS, in the test on UACC-257 melanoma and in the test with TK-10 renal was > 100 µM in each case. In addition, the TGI in the test with HCT-15 colon, in the test on U251 CNS, with UACC-62 melanoma, in the test on SF-295 CNS, with SK-MEL-28 melanoma and in the test with HCC-2998 colon was > 100 µM in each case. The TGI in the test with MCF7 breast, in the test on SK-MEL-2 melanoma, with ACHN renal, with OVCAR-3 ovarian and with NCI/ADR-RES ovarian was > 100 µM in each case.

In the case of `Cc1ccc(C2=C(C#N)C(=O)N3CCN=C3S2)cc1`, the TGI in the test on CCRF-CEM leukemia, in the test with SF-539 CNS, in the test on MDA-N, in the test on UACC-257 melanoma, in the test with TK-10 renal and in the test on HCT-15 colon was > 100 µM each time. Further, the TGI with U251 CNS, in the test with UACC-62 melanoma, with SF-295 CNS, in the test on SK-MEL-28 melanoma, in the test on HCC-2998 colon and in the test with MCF7 breast was > 100 µM throughout. Moreover, the TGI in the test with SK-MEL-2 melanoma, in the test on ACHN renal, in the test on OVCAR-3 ovarian and with NCI/ADR-RES ovarian was > 100 µM in each case.

`COc1cc([C@H]2CC(=O)C[C@H](c3cc(OC)c(OC)c(OC)c3)C23C(=O)c2ccccc2C3=O)cc(OC)c1OC`: the TGI with SF-539 CNS, with HS 578T breast, with SF-268 CNS, in the test on UACC-257 melanoma, in the test on TK-10 renal and in the test on HCT-15 colon was > 100 µM each time. Moreover, the TGI in the test with U251 CNS, in the test on UACC-62 melanoma, with SF-295 CNS, in the test with SK-MEL-28 melanoma, with HCC-2998 colon and with MCF7 breast was > 100 µM throughout. Moreover, the TGI in the test on SK-MEL-2 melanoma, in the test with ACHN renal, in the test on OVCAR-3 ovarian and with NCI/ADR-RES ovarian was > 100 µM throughout.

With `Cc1c2c(Cl)c3c(c(Cl)c2c(C)c2c(Cl)c4c(c(Cl)c12)C(c1ccccc1)(c1ccccc1)C4(c1ccccc1)c1ccccc1)C(c1ccccc1)(c1ccccc1)C3(c1ccccc1)c1ccccc1`, the TGI in the test on CCRF-CEM leukemia, in the test with SF-539 CNS, with MDA-N, with SF-268 CNS, with UACC-257 melanoma and in the test on TK-10 renal was > 100 µM throughout. Besides, the TGI in the test with HCT-15 colon, in the test with U251 CNS, in the test with UACC-62 melanoma, in the test with SF-295 CNS, in the test with SK-MEL-28 melanoma and in the test on HCC-2998 colon was > 100 µM throughout. Moreover, the TGI in the test with MCF7 breast, in the test on SK-MEL-2 melanoma, with ACHN renal, in the test on OVCAR-3 ovarian and in the test with NCI/ADR-RES ovarian was > 100 µM each time.

Consider `COc1c(Br)cc(/C=C(\C#N)c2cccnc2)cc1Br`, for which the TGI in the test with CCRF-CEM leukemia, with SF-539 CNS, in the test with MDA-N, in the test on SF-268 CNS, in the test with UACC-257 melanoma and in the test with TK-10 renal was > 100 µM in each case. Moreover, the TGI in the test with HCT-15 colon, in the test with U251 CNS, with UACC-62 melanoma, in the test with SF-295 CNS, with SK-MEL-28 melanoma and with HCC-2998 colon was > 100 µM in each case. The TGI in the test on MCF7 breast, in the test with SK-MEL-2 melanoma, in the test with ACHN renal, in the test with OVCAR-3 ovarian and in the test with NCI/ADR-RES ovarian was > 100 µM in each case.
